Measurements reported in patent publication US9149038B2, “4-amino-6-(heterocyclic)picolinates and 6-amino-2-(heterocyclic)pyrimidine-4-carboxylates and their use as herbicides” (Dow AgroSciences LLC, priority 2013, dated 2015).
Where two headings read alike, the source gives them in different places.

System: Direct Seeded Rice and weed species
Experiment: Postemergence herbicidal activity in direct seeded rice, visual rating after 20-22 days and probit GR20/GR50/GR80/GR90 (Table 14)
Type: in vivo
Conditions: for pest or weed control at 17.5 g/ha / pest or weed control at 35 g/ha / pest or weed control at 70 g/ha: post-emergence, 504 h, postemergence; for pest or weed control at 17.5 g/ha: 17.5 g ai/ha; for pest or weed control at 35 g/ha: 35 g ai/ha; for pest or weed control at 70 g/ha: 70 g ai/ha
Text: Herbicidal evaluations were made visually on a scale of 0 to 100 where 0 represents no activity and 100 represents complete plant death. Seeds or nutlets of the desired test plant species were planted in a soil matrix prepared by mixing a loam soil (43 percent silt, 19 percent clay, and 38 percent sand, with a pH of about 8.1 and an organic matter content of about 1.5 percent) and river sand in an 80 to 20 ratio. The soil matrix was contained in plastic pots with a surface area of 139.7 cm^2. When required to ensure good germination and healthy plants, a fungicide treatment and/or other chemical or physical treatment was applied. The plants were grown for 10-17 d in a greenhouse with an approximate 14-h photoperiod which was maintained at about 29° C. during the day and 26° C. during the night. Nutrients and water were added on a regular basis and supplemental lighting was provided with overhead metal halide 1000-Watt lamps as necessary. The plants were employed for testing when they reached the second or third true leaf stage. A weighed amount, determined by the highest rate to be tested, of each test compound was placed in 25 mL glass vials and dissolved in a volume of 97:3 v/v acetone-DMSO to obtain 12× stock solutions. […] The concentrated stock solutions were added to the spray solutions so that the final acetone and DMSO concentrations were 16.2% and 0.5%, respectively. Spray solutions were diluted to the appropriate final concentrations with the addition of 10 mL of an aqueous mixture of 1.5% (v/v) Agri-dex crop oil concentrate. The final spray solutions contained 1.25% (v/v) Agri-dex crop oil concentrate. Compound requirements are based upon a 12 mL application volume at a rate of 187 L/ha. Formulated compounds were applied to the plant material with an overhead Mandel track sprayer equipped with […] nozzles calibrated to deliver 187 L/ha over an application area of 0.503 square meters (m^2) at a spray height of 18 inches (43 cm) above average plant canopy height. Control plants were sprayed in the same manner with the solvent blank. The treated plants and control plants were placed in a greenhouse as described above and watered by sub-irrigation to prevent wash-off of the test compounds. After 20-22 days, the condition of the test plants, compared with that of the untreated plants, was determined visually and scored on a scale of 0 to 100 percent where 0 corresponds to no injury and 100 corresponds to complete kill and are presented as indicated in Table 4. By applying the well-accepted probit analysis as described by J. Berkson in Journal of the American Statistical Society, 48, 565 (1953) and by D. Finney in “Probit Analysis” Cambridge University Press (1952), herbicidal injury of a specific compound at various rates can be used to calculate GR20, GR50, GR80 and GR90 values, which are defined as growth reduction factors that correspond to the effective dose of herbicide required to provide plant growth reduction (GR) of 20 percent, 50 percent, 80 percent and 90 percent, respectively. Probit analysis was applied to data collected from multiple dose rates of individual compounds utilizing the procedures explained in the following examples. The data for some of the dose rates and analysis of all of the dose rates are captured in the following tables.

[1] = BRAPP (broadleaf signalgrass, Brachiaria platyphylla), read-out: Visual Growth Reduction (%) 21 Days After Application BRAPP
[2] = CYPDI (small-flower flatsedge, Cyperus difformis), read-out: Visual Growth Reduction (%) 21 Days After Application CYPDI
[3] = CYPES (yellow nutsedge, Cyperus esculentus), read-out: Visual Growth Reduction (%) 21 Days After Application CYPES
[4] = CYPIR (rice flatsedge, Cyperus iria), read-out: Visual Growth Reduction (%) 21 Days After Application CYPIR
[5] = DIGSA (large crabgrass, Digitaria sanguinalis), read-out: Visual Growth Reduction (%) 21 Days After Application DIGSA
[6] = ECHCG (barnyardgrass, Echinochloa crus-galli), read-out: Visual Growth Reduction (%) 21 Days After Application ECHCG
[7] = ECHCO (junglerice, Echinochloa colonum), read-out: Visual Growth Reduction (%) 21 Days After Application ECHCO
[8] = LEFCH (Chinese sprangletop, Leptochloa chinensis), read-out: Visual Growth Reduction (%) 21 Days After Application LEFCH
[9] = ORYSJ (Oryza sativa, rice crop), read-out: Visual Growth Reduction (%) 21 Days After Application ORYSJ
[10] = ORYSK (Oryza sativa, rice crop), read-out: Visual Growth Reduction (%) 21 Days After Application ORYSK
[11] = SCPJU (Japanese bulrush, Schoenoplectus juncoides Roxb.), read-out: Visual Growth Reduction (%) 21 Days After Application SCPJU
[12] = SEBEX (hemp sesbania, Sesbania exaltata), read-out: Visual Growth Reduction (%) 21 Days After Application SEBEX

Nc1c(F)c(-c2ccc3c(c2F)OC(F)(F)O3)nc(C(=O)O)c1Cl [Compound 11]
GR50 BRAPP (BRAPP (Brachiaria platyphylla), probit analysis, dose for 50 percent growth reduction): 7 g ai/ha
GR80 BRAPP (BRAPP (Brachiaria platyphylla), probit analysis, dose for 80 percent growth reduction): 16 g ai/ha
GR90 BRAPP (BRAPP (Brachiaria platyphylla), probit analysis, dose for 90 percent growth reduction): 25 g ai/ha
GR50 CYPDI (CYPDI (Cyperus difformis), probit analysis, dose for 50 percent growth reduction): 3 g ai/ha
GR80 CYPDI (CYPDI (Cyperus difformis), probit analysis, dose for 80 percent growth reduction): 7 g ai/ha
GR90 CYPDI (CYPDI (Cyperus difformis), probit analysis, dose for 90 percent growth reduction): 10 g ai/ha
GR50 CYPES (CYPES (Cyperus esculentus), probit analysis, dose for 50 percent growth reduction): <18 g ai/ha
GR80 CYPES (CYPES (Cyperus esculentus), probit analysis, dose for 80 percent growth reduction): <18 g ai/ha
GR90 CYPES (CYPES (Cyperus esculentus), probit analysis, dose for 90 percent growth reduction): <18 g ai/ha
GR50 CYPIR (CYPIR (Cyperus iria), probit analysis, dose for 50 percent growth reduction): 5 g ai/ha
GR80 CYPIR (CYPIR (Cyperus iria), probit analysis, dose for 80 percent growth reduction): 7 g ai/ha
GR90 CYPIR (CYPIR (Cyperus iria), probit analysis, dose for 90 percent growth reduction): 7 g ai/ha
GR50 DIGSA (DIGSA (Digitaria sanguinalis), probit analysis, dose for 50 percent growth reduction): 1 g ai/ha
GR80 DIGSA (DIGSA (Digitaria sanguinalis), probit analysis, dose for 80 percent growth reduction): 4 g ai/ha
GR90 DIGSA (DIGSA (Digitaria sanguinalis), probit analysis, dose for 90 percent growth reduction): 9 g ai/ha
GR50 ECHCG (ECHCG (Echinochloa crus-galli), probit analysis, dose for 50 percent growth reduction): 7 g ai/ha
GR80 ECHCG (ECHCG (Echinochloa crus-galli), probit analysis, dose for 80 percent growth reduction): 15 g ai/ha
GR90 ECHCG (ECHCG (Echinochloa crus-galli), probit analysis, dose for 90 percent growth reduction): 23 g ai/ha
GR50 ECHCO (ECHCO (Echinochloa colonum), probit analysis, dose for 50 percent growth reduction): 4 g ai/ha
GR80 ECHCO (ECHCO (Echinochloa colonum), probit analysis, dose for 80 percent growth reduction): 9 g ai/ha
GR90 ECHCO (ECHCO (Echinochloa colonum), probit analysis, dose for 90 percent growth reduction): 14 g ai/ha
GR50 LEFCH (LEFCH (Leptochloa chinensis), probit analysis, dose for 50 percent growth reduction): 23 g ai/ha
GR80 LEFCH (LEFCH (Leptochloa chinensis), probit analysis, dose for 80 percent growth reduction): 34 g ai/ha
GR90 LEFCH (LEFCH (Leptochloa chinensis), probit analysis, dose for 90 percent growth reduction): 41 g ai/ha
GR20 ORYSJ (ORYSJ (Oryza sativa, rice crop), probit analysis, dose for 20 percent growth reduction): 8 g ai/ha
GR20 ORYSK (ORYSK (Oryza sativa, rice crop), probit analysis, dose for 20 percent growth reduction): 7 g ai/ha
GR50 SCPJU (SCPJU (Schoenoplectus juncoides Roxb.), probit analysis, dose for 50 percent growth reduction): 0.04 g ai/ha
GR80 SCPJU (SCPJU (Schoenoplectus juncoides Roxb.), probit analysis, dose for 80 percent growth reduction): 1 g ai/ha
GR90 SCPJU (SCPJU (Schoenoplectus juncoides Roxb.), probit analysis, dose for 90 percent growth reduction): 2 g ai/ha
GR50 SEBEX (SEBEX (Sesbania exaltata), probit analysis, dose for 50 percent growth reduction): 3 g ai/ha
GR80 SEBEX (SEBEX (Sesbania exaltata), probit analysis, dose for 80 percent growth reduction): 7 g ai/ha
GR90 SEBEX (SEBEX (Sesbania exaltata), probit analysis, dose for 90 percent growth reduction): 10 g ai/ha
pest or weed control at 17.5 g/ha [1]: 85 to 94%
pest or weed control at 35 g/ha [1]: 95 to 100%
pest or weed control at 70 g/ha [1]: 95 to 100%
pest or weed control at 17.5 g/ha [2]: 95 to 100%
pest or weed control at 35 g/ha [2]: 95 to 100%
pest or weed control at 70 g/ha [2]: 95 to 100%
pest or weed control at 17.5 g/ha [3]: 85 to 94%
pest or weed control at 35 g/ha [3]: 95 to 100%
pest or weed control at 70 g/ha [3]: 95 to 100%
pest or weed control at 17.5 g/ha [4]: 95 to 100%
pest or weed control at 35 g/ha [4]: 95 to 100%
pest or weed control at 70 g/ha [4]: 95 to 100%
pest or weed control at 17.5 g/ha [5]: 95 to 100%
pest or weed control at 35 g/ha [5]: 95 to 100%
pest or weed control at 70 g/ha [5]: 95 to 100%
pest or weed control at 17.5 g/ha [6]: 95 to 100%
pest or weed control at 35 g/ha [6]: 85 to 94%
pest or weed control at 70 g/ha [6]: 95 to 100%
pest or weed control at 17.5 g/ha [7]: 95 to 100%
pest or weed control at 35 g/ha [7]: 95 to 100%
pest or weed control at 70 g/ha [7]: 95 to 100%
pest or weed control at 17.5 g/ha [8]: 0 to 29%
pest or weed control at 35 g/ha [8]: 95 to 100%
pest or weed control at 70 g/ha [8]: 95 to 100%
pest or weed control at 17.5 g/ha [9]: 30 to 44%
pest or weed control at 35 g/ha [9]: 75 to 84%
pest or weed control at 70 g/ha [9]: 85 to 94%
pest or weed control at 17.5 g/ha [10]: 45 to 59%
pest or weed control at 35 g/ha [10]: 60 to 74%
pest or weed control at 70 g/ha [10]: 75 to 84%
pest or weed control at 17.5 g/ha [11]: 95 to 100%
pest or weed control at 35 g/ha [11]: 95 to 100%
pest or weed control at 70 g/ha [11]: 95 to 100%
pest or weed control at 17.5 g/ha [12]: 95 to 100%
pest or weed control at 35 g/ha [12]: 95 to 100%
pest or weed control at 70 g/ha [12]: 95 to 100%
